Measured values: paper PMC12389711, “Study on the Excretion of a New Antihypertensive Drug 221s (2,9) in Rats” (Pharmaceuticals, 2025)
Where two headings read alike, the source gives them in different places.

Columns and labels:
[1] = Excretion study of unchanged drug in urine, feces and bile after oral administration (UPLC-MS/MS); type: in vivo, Sprague-Dawley rats; settings: 30 mg/kg oral; for dose excreted: male, Sprague-Dawley, rat, at 72 h
Procedure: According to previous data, analytical separation was performed using an ultra-performance liquid chromatography-tandem mass spectrometry (UPLC-MS/MS) platform comprising a Waters ACQUITY UPLC H-Class (Waters, Milford, CT, USA) system coupled to an AB Sciex Triple Quad 6500 mass spectrometer (AB Sciex, Boston, MA, USA). Chromatographic resolution was achieved on a Waters ACQUITY UPLC BEH C18 column (1.7 μm, 2.1 × 50 mm) maintained at 40 °C. The mobile phase system incorporated two components: solvent A (0.02% formic acid and 5 mM NH4F in deionized water) and solvent B (acetonitrile), delivered at 0.2 mL/min with a 10 μL injection volume. The gradient program was configured as follows: 55% solvent A (0.0–0.6 min), 5% solvent A (0.6–2.5 min), followed by re-equilibration at 55% solvent A (2.5–5.0 min).
Mass spectrometric detection utilized positive electrospray ionization (ESI+) in MRM mode, monitoring precursor-to-product ion transitions at m/z 525.1→389.1 (221s (2,9)) and 357.0→220.9 (IS). Instrument parameters were optimized as follows: curtain gas 25 psi, ion source temperature 500 °C, GS1/GS2 pressures 50/40 psi, ion spray voltage 5 kV, and collision gas pressure 10 psi. Compound-dependent parameter settings included decluttering potential (DP), entrance potential (EP), collision cell exit potential (CXP), and collision energy (CE) of 160/10/5/63 V for 221s (2,9) and 70/10/5/20 V for IS. Data processing was executed using Analyst software (v1.6.3).
Six male Sprague-Dawley (SD) rats aged 8–10 weeks (body weight: 220–250 g) were individually housed in metabolic cages. Following a 12 h fasting period with free access to water, baseline urinary and fecal samples were collected as blank controls prior to drug administration. Samples of urine and feces were collected from 0–4 h, 4–8 h, 8–12 h, 12–24 h, 24–36 h, 36–48 h, 48–60 h, 60–72 h, and 72–84 h post-administration of 221s (2,9) with an oral dosage of 30 mg/kg. Urine samples were quantitatively measured for volume before storage at −80 °C while fecal samples were dried, pulverized, and weighed prior to preservation at −80 °C.
Six male SD rats were fasted for 12 h prior to drug administration, with free access to water. After being anesthetized with isoflurane, the rats were positioned supine on surgical platforms for common bile duct cannulation. Blank bile samples were collected following stabilization of bile flow. Following oral gavage of 30 mg/kg 221s (2,9), bile samples were sequentially collected during 0–2 h, 2–4 h, 4–8 h, 8–12 h, 12–24 h, 24–36 h, 36–48 h, and 48–72 h intervals. All biliary specimens were volumetrically measured and cryopreserved at −80 °C for subsequent analysis. Hydration maintenance was ensured through intraperitoneal administration of physiological saline during experimental procedures.
A total of 10 μL of IS (1 μg/mL) was added to each urinary sample (100 μL), followed by the addition of three volumes of acetonitrile. The mixtures were vortexed and centrifuged twice. Then, the supernatants were concentrated, lyophilized and reconstituted in 100 μL of acetonitrile. The supernatants were subjected to instrumental analysis after final centrifugation.
Fecal samples (100 mg) were homogenized with three volumes of saline via ultrasonication for 10 min. Then, 10 μL of IS (1 μg/mL) was added, before adding three volumes of acetonitrile. […] After vortexing and dual centrifugation, the supernatant was concentrated, lyophilized, and reconstituted in 100 μL of acetonitrile. The supernatants were subjected to instrument for analysis after final centrifugation.
Biliary samples (100 μL) were precisely aliquoted and added with 10 μL IS (1 μg/mL). Following homogenization, three volumes of acetonitrile were added to precipitate impurities. After vortexing and centrifuging twice, the supernatant was concentrated, lyophilized, and reconstituted in 100 μL of acetonitrile. […]

mice = system: mice; set-up: method as in doi:10.19803/j.1672-8629.20220529; settings: cited from earlier work
[2] = system: angiotensin II (Ang II) and angiotensin-converting enzyme (ACE); set-up: method as in PMID 37446639; settings: SHR; cited from earlier work
[3] = system: spontaneously hypertensive rats (SHR); assay: Serum creatinine and renal NOX2 expression in SHR; type: in vivo, rat
[4] = system: spontaneously hypertensive rats (SHR); set-up: method as in PMID 37446639; settings: cited from earlier work
[5] = Stability in rat urine, feces and bile matrices (QC samples); type: in vitro ADME
Procedure: The stability of 221s (2,9) in rat urine, feces, and bile matrices was evaluated using QC samples at three concentration levels (10, 1000, and 1600 ng/mL) across six replicates under four conditions per matrix: three freeze–thaw cycles, short-term storage (room temperature, 2 h), long-term storage (−80 °C, 30 days), and autosampler rack storage (4 °C, 24 h). Stability was quantified by comparing post-storage concentrations (normalized to freshly prepared QC samples analyzed in the same batch) with nominal values, with deviations ≤15% considered acceptable. Dilution reliability was assessed by 5-fold dilution of QC samples (1000/1600 ng/mL) in each matrix using blank rat plasma. Dilution accuracy was verified by comparing measured concentrations (post-dilution factor correction) to nominal values, with acceptable criteria defined as ≤15% relative error (RE) and ≤15% relative standard deviation (RSD).

ACE = ACE content in murine serum, cerebral tissue and renal compartments (preliminary data); type: in vivo; settings: cerebral tissue, renal compartments
[6] = set-up: method as in PMID 23607051; settings: cited from earlier work

With `CC(NC(=O)C(O)Cc1ccc(O)c(O)c1)C(=O)N1CCCC1C(=O)OC1CC2CCC1(C)C2(C)C` (stereo not drawn) [221s (2,9)] the cumulative fecal output ([1]; feces, at 48 h, rats, unchanged drug) was 36,726.31 ± 5507 ng, the fecal excretion rate ([1]; feces, between 4 and 8 h, rats, unchanged drug) was 7994.29 ± 953.75 ng/h and the dose excreted ([1]; bile, bile duct cannulated rats, read-out: recovery of unchanged drug in bile (accumulative excretion rate, % of administered dose)) was 0.00044 ± 2e-05%. The dose excreted ([1]; feces, rats, read-out: recovery of unchanged drug in feces (accumulative excretion rate, % of administered dose)) was 0.73 ± 0.069%, the dose excreted ([1]; urine, rats, read-out: recovery of unchanged drug in urine (accumulative excretion rate, % of administered dose)) was 0.02 ± 0.021% and the “total recovery of unchanged drug across all matrices (% of administered dose)” value ([1]; urine + feces + bile, over 72 h, rats) was “below 1%”. For the same compound, the “peak urinary excretion rate” value ([1]; urine, at 8 h post-dosing, rats, unchanged drug) was 138.81 ± 15.56 ng/h, the cumulative urinary excretion ([1]; urine, plateau by 48 h, rats, unchanged drug) was 1479.81 ± 155.7 ng and the “effects on body weight, dietary intake, histopathological parameters of liver, lungs and kidneys” value (mice; at 3000 mg/kg oral gavage) was “no substantial effects”. The acute toxicity (mice; oral gavage) was “no significant acute toxicity”, the maximum tolerated dose (mice; oral gavage) was 3000 mg/kg and the “serum level of angiotensin II (Ang II)” value [2] was “significantly reduced”. For the same compound, the “serum level of angiotensin-converting enzyme (ACE)” value [2] was “significantly reduced”, the “decrease of serum creatinine level” value ([3]; p < 0.01) was 38.99% and the “downregulation of renal NOX2 expression” value ([3]; p < 0.05) was 16.23%. For the same compound, the “antihypertensive efficacy compared with captopril” value [4] was “comparable to that of captopril”, the “reduction of diastolic blood pressure” value [4] was 35 mmHg and the “reduction of systolic blood pressure” value [4] was 50 mmHg. For the same compound, the “Stability RE (%)” value ([5]; bile, autosampler rack (4 °C) for 24 h, spiked 10 ng/mL) was −4.4%, the “Stability RE (%)” value ([5]; bile, autosampler rack (4 °C) for 24 h, spiked 1000 ng/mL) was −3.2% and the “Stability RE (%)” value ([5]; bile, autosampler rack (4 °C) for 24 h, spiked 1600 ng/mL) was −3.8%. For the same compound, the “Stability RE (%)” value ([5]; bile, room temperature for 2 h, spiked 10 ng/mL) was −5.2%, the “Stability RE (%)” value ([5]; bile, room temperature for 2 h, spiked 1000 ng/mL) was −4.5% and the “Stability RE (%)” value ([5]; bile, room temperature for 2 h, spiked 1600 ng/mL) was 5.1%. The “Stability RE (%)” value ([5]; bile, three freeze/thaw cycles, spiked 10 ng/mL) was −8.4%, the “Stability RE (%)” value ([5]; bile, three freeze/thaw cycles, spiked 1000 ng/mL) was −4.1% and the “Stability RE (%)” value ([5]; bile, three freeze/thaw cycles, spiked 1600 ng/mL) was 4.2%. The “Stability RE (%)” value ([5]; bile, −80 °C for 30 days, spiked 10 ng/mL) was −3.1%, the “Stability RE (%)” value ([5]; bile, −80 °C for 30 days, spiked 1000 ng/mL) was 1.5% and the “Stability RE (%)” value ([5]; bile, −80 °C for 30 days, spiked 1600 ng/mL) was 3.4%. For the same compound, the “Stability RE (%)” value ([5]; feces, autosampler rack (4 °C) for 24 h, spiked 10 ng/mL) was −4.9%, the “Stability RE (%)” value ([5]; feces, autosampler rack (4 °C) for 24 h, spiked 1000 ng/mL) was −2.2% and the “Stability RE (%)” value ([5]; feces, autosampler rack (4 °C) for 24 h, spiked 1600 ng/mL) was 4.6%. The “Stability RE (%)” value ([5]; feces, room temperature for 2 h, spiked 10 ng/mL) was −6.7%, the “Stability RE (%)” value ([5]; feces, room temperature for 2 h, spiked 1000 ng/mL) was −3.6% and the “Stability RE (%)” value ([5]; feces, room temperature for 2 h, spiked 1600 ng/mL) was −4.7%. The “Stability RE (%)” value ([5]; feces, three freeze/thaw cycles, spiked 10 ng/mL) was −5.3%, the “Stability RE (%)” value ([5]; feces, three freeze/thaw cycles, spiked 1000 ng/mL) was −4.8% and the “Stability RE (%)” value ([5]; feces, three freeze/thaw cycles, spiked 1600 ng/mL) was −3.2%. For the same compound, the “Stability RE (%)” value ([5]; feces, −80 °C for 30 days, spiked 10 ng/mL) was −6.4%, the “Stability RE (%)” value ([5]; feces, −80 °C for 30 days, spiked 1000 ng/mL) was −5.3% and the “Stability RE (%)” value ([5]; feces, −80 °C for 30 days, spiked 1600 ng/mL) was 2.8%. The “degradation in urinary/fecal/biliary samples” value ([5]; room temperature 2 h, three freeze-thaw cycles, −80 °C 30 days, 4 °C autosampler 24 h) was “no significant degradation”, the “Stability RE (%)” value ([5]; urine, autosampler rack (4 °C) for 24 h, spiked 10 ng/mL) was −7.3% and the “Stability RE (%)” value ([5]; urine, autosampler rack (4 °C) for 24 h, spiked 1000 ng/mL) was −6.3%. The “Stability RE (%)” value ([5]; urine, autosampler rack (4 °C) for 24 h, spiked 1600 ng/mL) was 3.9%, the “Stability RE (%)” value ([5]; urine, room temperature for 2 h, spiked 10 ng/mL) was −12.5% and the “Stability RE (%)” value ([5]; urine, room temperature for 2 h, spiked 1000 ng/mL) was −1.5%. For the same compound, the “Stability RE (%)” value ([5]; urine, room temperature for 2 h, spiked 1600 ng/mL) was 3.4%, the “Stability RE (%)” value ([5]; urine, three freeze/thaw cycles, spiked 10 ng/mL) was −9.4% and the “Stability RE (%)” value ([5]; urine, three freeze/thaw cycles, spiked 1000 ng/mL) was −6.4%. The “Stability RE (%)” value ([5]; urine, three freeze/thaw cycles, spiked 1600 ng/mL) was −2.6%, the “Stability RE (%)” value ([5]; urine, −80 °C for 30 days, spiked 10 ng/mL) was −8.7% and the “Stability RE (%)” value ([5]; urine, −80 °C for 30 days, spiked 1000 ng/mL) was −5.4%. For the same compound, the “Stability RE (%)” value ([5]; urine, −80 °C for 30 days, spiked 1600 ng/mL) was −5.5% and the ACE content (ACE) was “reduces ACE content”.

For `CC1(C)C2CCC1(C)C(OC(=O)c1cc(O)c(O)c(O)c1)C2` (stereo not drawn) [bornyl gallate], the tissue distribution [6] is listed as “pronounced renal accumulation alongside measurable brain distribution”.
